Measurements: patent US20260256792A1, “TREATMENT OF CHRONIC SPONTANEOUS URTICARIA BY ADMINISTERING (R)-2-[3-[4-AMINO-3-(2-FLUORO-4-PHENOXY-PHENYL)PYRAZOLO[3,4-D]PYRIMIDIN-1-YL]PIPERIDINE-1-CARBONYL]-4-METHYL-4-[4-(OXETAN-3-YL)PIPERAZIN-1-YL]PENT-2-ENENITRILE” (priority 2023, published 2026)

Tested on: moderate-to-severe chronic spontaneous urticaria (CSU)
Assay: Phase 2 CSU study: itch severity score over 7 days (ISS7)
Assay type: in vivo, human
Description: The study comprises a 12 week, randomized, double-blind, placebo-controlled, multi-center, dose-ranging efficacy and safety phase, followed by a 40 week open label extension (OLE) phase (see FIG. 1). The study consists of three phases and an optional OLE phase. […] Clinically, CSU is characterized by the spontaneous and recurrent appearance of pruritic hives. The proposed primary endpoints were the UAS7 at Week 12 in EU and EU reference countries and the ISS7 in the US. Regardless of where a participant was from, all assessments were the same. The UAS7 score is a composite score containing both the HSS7 and the ISS7. This allowed a global assessment of the two key components of urticaria: hives and itch. […] The UAS is a validated PRO measure. […] The daily UAS scores range from 0 to 6 point/day. […] Patients were to complete the UAS using the e-diary. […] The following secondary endpoints were to be analyzed using the same approach as for the primary endpoint: • Change from baseline in UAS7 at Week 4 • Change from baseline in UAS7 at Week 12 (for US and US reference countries) • Change from baseline in ISS7 at Week 12 (except US and US reference countries) • Change from baseline in HSS7 at Week 12

[1] = Week 7, 400 mg TID, Omalizumab-Naïve
[2] = Week 7, 400 mg TID, Prior Omalizumab Use
[3] = Week 8, 400 mg BID, Omalizumab-Naïve
[4] = Week 8, 400 mg BID, Prior Omalizumab Use
[5] = Week 8, 400 mg QPM, Omalizumab-Naïve
[6] = Week 8, 400 mg QPM, Prior Omalizumab Use
[7] = Week 8, 400 mg TID, Omalizumab-Naïve
[8] = Week 8, 400 mg TID, Prior Omalizumab Use
[9] = Week 9, 400 mg BID, Omalizumab-Naïve
[10] = Week 9, 400 mg BID, Prior Omalizumab Use
[11] = Week 9, 400 mg QPM, Omalizumab-Naïve
[12] = Week 9, 400 mg QPM, Prior Omalizumab Use
[13] = Week 9, 400 mg TID, Omalizumab-Naïve
[14] = Week 9, 400 mg TID, Prior Omalizumab Use
[15] = Week 10, 400 mg BID, Omalizumab-Naïve
[16] = Week 10, 400 mg BID, Prior Omalizumab Use

With CC(C)(C=C(C#N)C(=O)N1CCC[C@@H](n2nc(-c3ccc(Oc4ccccc4)cc3F)c3c(N)ncnc32)C1)N1CCN(C2COC2)CC1 [rilzabrutinib, (R)-2-[3-[4-amino-3-(2-fluoro-4-phenoxy-phenyl)pyrazolo[3,4-d]pyrimidin-1-yl]piperidine-1-carbonyl]-4-methyl-4-[4-(oxetan-3-yl)piperazin-1-yl]pent-2-enenitrile] the “ISS7 Change from baseline Mean (SD)” value [1] was −8.96 (5.57), the “ISS7 Change from baseline Median” value [1] was −9.00 and the “ISS7 Mean (SD)” value [1] was 7.14 (5.35). For the same compound, the “ISS7 Median” value [1] was 8.00, the “ISS7 Percent change from baseline Mean (SD)” value (from here on “ISS7 Percent change … (SD)”) [1] was −55.24 (31.64) % and the “ISS7 Percent change from baseline Median” value [1] was −52.66%. The “ISS7 Change from baseline Mean (SD)” value [2] was −9.94 (7.89), the “ISS7 Change from baseline Median” value [2] was −7.33 and the “ISS7 Mean (SD)” value [2] was 7.06 (6.25). The “ISS7 Median” value [2] was 6.00, the “ISS7 Percent change … (SD)” value [2] was −54.94 (32.91) % and the “ISS7 Percent change from baseline Median” value [2] was −48.16%. The “ISS7 Change from baseline Mean (SD)” value [3] was −8.15 (6.15), the “ISS7 Change from baseline Median” value [3] was −9.00 and the “ISS7 Mean (SD)” value [3] was 7.33 (6.55). The “ISS7 Median” value [3] was 6.00, the “ISS7 Percent change … (SD)” value [3] was −53.11 (38.61) % and the “ISS7 Percent change from baseline Median” value [3] was −60.00%. The “ISS7 Change from baseline Mean (SD)” value [4] was −11.00 (9.49), the “ISS7 Change from baseline Median” value [4] was −14.00 and the “ISS7 Mean (SD)” value [4] was 6.20 (8.32). For the same compound, the “ISS7 Median” value [4] was 1.00, the “ISS7 Percent change … (SD)” value [4] was −61.52 (49.97) % and the “ISS7 Percent change from baseline Median” value [4] was −93.33%. For the same compound, the “ISS7 Change from baseline Mean (SD)” value [5] was −6.03 (4.99), the “ISS7 Change from baseline Median” value [5] was −6.00 and the “ISS7 Mean (SD)” value [5] was 10.72 (5.26). For the same compound, the “ISS7 Percent change … (SD)” value [5] was −36.14 (28.79) %, the “ISS7 Percent change from baseline Median” value [5] was −33.68% and the “ISS7 Change from baseline Mean (SD)” value [6] was −14.00 (NC). For the same compound, the “ISS7 Change from baseline Median” value [6] was −14.00, the “ISS7 Mean (SD)” value [6] was 7.00 (NC) and the “ISS7 Median” value [6] was 7.00. The “ISS7 Change from baseline Mean (SD)” value [7] was −9.01 (5.43), the “ISS7 Change from baseline Median” value [7] was −9.33 and the “ISS7 Mean (SD)” value [7] was 7.24 (5.51). For the same compound, the “ISS7 Median” value [7] was 7.00, the “ISS7 Percent change … (SD)” value [7] was −55.59 (31.84) % and the “ISS7 Percent change from baseline Median” value [7] was −53.49%. For the same compound, the “ISS7 Change from baseline Mean (SD)” value [8] was −12.67 (6.71), the “ISS7 Change from baseline Median” value [8] was −14.00 and the “ISS7 Mean (SD)” value [8] was 4.33 (6.83). For the same compound, the “ISS7 Median” value [8] was 1.50, the “ISS7 Percent change … (SD)” value [8] was −77.10 (31.49) % and the “ISS7 Percent change from baseline Median” value [8] was −86.61%. The “ISS7 Change from baseline Mean (SD)” value [9] was −7.57 (6.14), the “ISS7 Change from baseline Median” value [9] was −8.00 and the “ISS7 Mean (SD)” value [9] was 7.63 (7.11). The “ISS7 Median” value [9] was 7.00, the “ISS7 Percent change … (SD)” value [9] was −51.57 (40.77) % and the “ISS7 Percent change from baseline Median” value [9] was −53.33%. The “ISS7 Change from baseline Mean (SD)” value [10] was −10.83 (9.53), the “ISS7 Change from baseline Median” value [10] was −15.00 and the “ISS7 Mean (SD)” value [10] was 6.37 (8.47). For the same compound, the “ISS7 Median” value [10] was 1.00, the “ISS7 Percent change … (SD)” value [10] was −60.71 (51.74) % and the “ISS7 Percent change from baseline Median” value [10] was −95.24%. The “ISS7 Change from baseline Mean (SD)” value [11] was −6.39 (5.27), the “ISS7 Change from baseline Median” value [11] was −5.42 and the “ISS7 Percent change … (SD)” value [11] was −37.00 (28.06) %. For the same compound, the “ISS7 Percent change from baseline Median” value [11] was −33.33%, the “ISS7 Change from baseline Mean (SD)” value [12] was 11.00 (NC) and the “ISS7 Change from baseline Median” value [12] was −11.00. For the same compound, the “ISS7 Mean (SD)” value [12] was 10.00 (NC), the “ISS7 Percent change … (SD)” value [12] was −52.38 (NC) % and the “ISS7 Percent change from baseline Median” value [12] was −52.38%. The “ISS7 Change from baseline Mean (SD)” value [13] was −9.70 (5.57), the “ISS7 Change from baseline Median” value [13] was −10.00 and the “ISS7 Mean (SD)” value [13] was 6.68 (5.31). The “ISS7 Median” value [13] was 7.00, the “ISS7 Percent change … (SD)” value [13] was −58.56 (30.66) % and the “ISS7 Percent change from baseline Median” value [13] was −65.00%. The “ISS7 Change from baseline Mean (SD)” value [14] was −12.36 (6.72), the “ISS7 Change from baseline Median” value [14] was −13.92 and the “ISS7 Mean (SD)” value [14] was 4.64 (6.72). The “ISS7 Median” value [14] was 2.00, the “ISS7 Percent change … (SD)” value [14] was −74.49 (30.89) % and the “ISS7 Percent change from baseline Median” value [14] was −83.01%. For the same compound, the “ISS7 Change from baseline Mean (SD)” value [15] was −7.07 (6.58), the “ISS7 Change from baseline Median” value [15] was −7.58 and the “ISS7 Mean (SD)” value [15] was 8.17 (7.29). For the same compound, the “ISS7 Median” value [15] was 7.00, the “ISS7 Percent change … (SD)” value [15] was −47.10 (43.27) % and the “ISS7 Percent change from baseline Median” value [15] was −48.10%. The “ISS7 Change from baseline Mean (SD)” value [16] was −9.80 (9.55), the “ISS7 Change from baseline Median” value [16] was −11.00 and the “ISS7 Mean (SD)” value [16] was 7.40 (8.11). For the same compound, the “ISS7 Median” value [16] was 4.00, the “ISS7 Percent change … (SD)” value [16] was −53.71 (50.05) % and the “ISS7 Percent change from baseline Median” value [16] was −73.33%. For the same compound, the “ISS7 Change from baseline Mean (SD)” value (Week 10, 400 mg QPM, Omalizumab-Naïve) was −6.43 (5.26).
